These compounds were tested on primary astrocytes (assay: Extracellular medium acidification (SNARF5) assay in astrocytes). Details: Mus musculus, Astrocyte; astrocytes in vitro; compounds 10 nM to 30 μM; read-out: Activity (EC50 class, extracellular medium acidification SNARF5).
Type: cell-based
Procedure: To assess for the effect of the compounds of the invention, those were tested in primary mouse astrocytes and astrocytes differentiated from human-derived induced pluripotent stem cells (iPSCs). Secretion of lactate was measured indirectly through the acidification of extracellular medium using extracellular pH sensor SNARE-5F-(AND-6)-CAR (SNARF5) as described below.
(§1) Primary cultures of cerebrocortical astrocytes were obtained from 1 to 2-day-old OF1 mouse pups (Charles River Laboratories). Briefly, cortices were isolated and minced in small pieces under a dissecting microscope. The cells were incubated for 30 min at 37° C. in a solution containing 20 U/ml papain, 1 mM L-cysteine and 10 kU/ml DNase I. After dissociation, papain activity was stopped by the addition of fetal calf serum (FCS). Single-cell suspension was then obtained by mechanical dissociation, which consisted in cells trituration in a DMEM D7777 medium supplemented with 44 mm NaHCO3, 10 ml/L antibiotic/antimycotic solution and 10% FCS. The cells were seeded at an average density of ˜10′000 cells/cm^2 on poly-D-lysine coated 96- or 12-well culture plates, depending on their use, and grown in DMEM D7777 medium supplemented with 44 mm NaHCO3, 10 ml/L antibiotic/antimycotic solution and 10% FCS at 37° C. in a humidified atmosphere containing 5% CO2/95% air. Culture medium was renewed twice a week. Cells were stimulated and harvested between DIV14 and DIV17, when confluence and cell growth were optimal.
Secretion of lactate was measured indirectly through the acidification of extracellular medium using extracellular pH sensor SNARF-5F-(AND-6)-CAR (SNARF5). After washing cells twice with stimulation medium (DMEM (D5030, Sigma), 1 mM […], and 5 mM Glucose, pH 7.4) at 37° C., cells were stimulated with compounds at a final concentration ranging from 10 nM to 30 μM in 50 μl per well of stimulation medium supplemented with 10 μM of SNARF5 (Life Technologies Corporation). Each compound was tested in two different plates for duplicates. After 30, 60 and 90 min stimulation, fluorescence was read at exc. (excitation) 480 nm/emm. (emission) 580 nm and at exc 480 nm/emm. 630 nm. The ratio of fluorescence between 630 nm and 580 emission values, which is proportional to extracellular pH, was calculated. In each plate, 8 wells were used for negative controls (DMSO 0.1%) and 8 wells were used for positive controls (CCCP 2 μM in DMSO). Results are shown as % of positive control effect (0% and 100% being activities of the Veh and positive control, respectively).

EC50 | SMILES
> 1000 nM | CCOc1cc2ccnc(Nc3ccc(S(C)(=O)=O)cc3)c2cc1O [Compound 6, 6-ethoxy-1-(4-methylsulfonylanilino)isoquinolin-7-ol]
< 1000 nM | CCOc1cc2ccnc(Nc3ccc(S(C)(=O)=O)cc3)c2cc1OCC [Compound 8, 6,7-diethoxy-N-(4-methylsulfonylphenyl)isoquinolin-1-amine]
< 1000 nM | COc1cc2ccnc(Nc3ccc(N4CCCC4=O)cc3)c2cc1OC [Compound 9, 1-[4-[(6,7-dimethoxy-1-isoquinolyl)amino]phenyl]pyrrolidin-2-one]
< 1000 nM | C=Cc1cc2c(Nc3ccc(S(C)(=O)=O)cc3)nccc2cc1OC [Compound 16, 6-methoxy-N-(4-methylsulfonylphenyl)-7-vinyl-isoquinolin-1-amine]
< 1000 nM | CCc1cc2c(Nc3ccc(S(C)(=O)=O)cc3)nccc2cc1O [Compound 18, 7-ethyl-1-(4-methylsulfonylanilino)isoquinolin-6-ol]
< 1000 nM | COc1cc2c(Nc3ccc(S(C)(=O)=O)cc3)nccc2cc1NCC1CC1 [Compound 23, N6-(cyclopropylmethyl)-7-methoxy-N1-(4-methylsulfonylphenyl)isoquinoline-1,6-diamine]
< 1000 nM | COc1cc2c(Nc3ccc(S(C)(=O)=O)cc3)nccc2cc1N1CCC1 [Compound 24, 6-(azetidin-1-yl)-7-methoxy-N-(4-methylsulfonylphenyl)isoquinolin-1-amine]
< 1000 nM | CCc1cc2ccnc(Nc3ccc(S(C)(=O)=O)cc3)c2cc1O [Compound 25, 6-ethyl-1-[(4-methanesulfonylphenyl)amino]isoquinolin-7-ol]
< 1000 nM | CCOc1cc2ccnc(Nc3ccc(S(=O)(=O)C4CC4)cc3)c2cc1OCC [Compound 32, N-[4-(cyclopropanesulfonyl)phenyl]-6,7-diethoxyisoquinolin-1-amine]
< 1000 nM | CCOc1cc2ccnc(Nc3ccc(S(C)(=O)=O)cc3)c2cc1OCCF [Compound 33, 6-ethoxy-7-(2-fluoroethoxy)-N-(4-methanesulfonylphenyl)isoquinolin-1-amine]
< 1000 nM | CC(C)Oc1ccc2c(Cc3ccc(S(C)(=O)=O)cc3)nccc2c1 [Compound 35, 1-[(4-methanesulfonylphenyl)methyl]-6-(propan-2-yloxy)isoquinoline]
< 1000 nM | CS(=O)(=O)c1ccc(Nc2nccc3cc(OCc4ccc(F)cc4)ccc23)cc1 [Compound 36, 6-[(4-fluorophenyl)methoxy]-N-(4-methanesulfonylphenyl)isoquinolin-1-amine]
< 1000 nM | CCCc1cc2c(Nc3ccc(S(C)(=O)=O)cc3)nccc2cc1OCC [Compound 37, 6-ethoxy-N-(4-methanesulfonylphenyl)-7-propylisoquinolin-1-amine]

Further lines, the compound ahead of its results:

SMILES | EC50
CS(=O)(=O)c1ccc(Nc2nccc3cc(O)c(O)cc23)cc1 [Compound 5, 1-(4-methylsulfonylanilino)isoquinoline-6,7-diol] | < 1000 nM
CCOc1cc2c(Nc3ccc(S(C)(=O)=O)cc3)nccc2cc1O [Compound 7, 7-ethoxy-1-(4-methylsulfonylanilino)isoquinolin-6-ol] | > 1000 nM
C=COc1ccc2c(Nc3ccc(S(C)(=O)=O)cc3)nccc2c1 [Compound 10, N-(4-methylsulfonylphenyl)-6-vinyloxy-isoquinolin-1-amine] | < 1000 nM
CC(C)Oc1ccc2c(Nc3ccc(S(C)(=O)=O)cc3)nccc2c1 [Compound 11, 6-isopropoxy-N-(4-methylsulfonylphenyl)isoquinolin-1-amine] | < 1000 nM
CS(=O)(=O)c1ccc(Nc2nccc3cc(-c4ncccn4)ccc23)cc1 [Compound 12, N-(4-methylsulfonylphenyl)-6-pyrimidin-2-yl-isoquinolin-1-amine] | < 1000 nM
CS(=O)(=O)c1ccc(Nc2nccc3ccc(O)cc23)cc1 [Compound 13, 1-(4-methylsulfonylanilino)isoquinolin-7-ol] | > 1000 nM
CC(=O)Nc1ccc2ccnc(Nc3ccc(S(C)(=O)=O)cc3)c2c1 [Compound 14, N-[1-(4-methylsulfonylanilino)-7-isoquinolyl]acetamide] | < 1000 nM
CCNc1ccc2ccnc(Nc3ccc(S(C)(=O)=O)cc3)c2c1 [Compound 15, N7-ethyl-N1-(4-methylsulfonylphenyl)isoquinoline-1,7-diamine] | > 1000 nM
CCc1cc2c(Nc3ccc(S(C)(=O)=O)cc3)nccc2cc1OC [Compound 17, 7-ethyl-6-methoxy-N-(4-methylsulfonylphenyl)isoquinolin-1-amine] | < 1000 nM
CS(=O)(=O)c1ccc(Nc2nccc3cc(O)c(Br)cc23)cc1 [Compound 19, 7-bromo-1-(4-methylsulfonylanilino)isoquinolin-6-ol] | < 1000 nM
COc1cc2ccnc(Nc3ccc(S(C)(=O)=O)cc3)c2cc1NCc1ccccc1 [Compound 20, N7-benzyl-6-methoxy-N1-(4-methylsulfonylphenyl)isoquinoline-1,7-diamine] | < 1000 nM
COc1cc2ccnc(Nc3ccc(S(C)(=O)=O)cc3)c2cc1NCC1CC1 [Compound 21, N7-(cyclopropylmethyl)-6-methoxy-N1-(4-methylsulfonylphenyl)isoquinoline-1,7-diamine] | < 1000 nM
CCCNc1cc2c(Nc3ccc(S(C)(=O)=O)cc3)nccc2cc1OC [Compound 22, 6-methoxy-N1-(4-methylsulfonylphenyl)-N7-propyl-isoquinoline-1,7-diamine] | < 1000 nM
CCOc1cc2ccnc(Nc3ccc(S(=O)(=O)CC)cc3)c2cc1OCC [Compound 26, N-[4-(ethanesulfonyl)phenyl]-6,7-diethoxyisoquinolin-1-amine] | < 1000 nM
CCOc1cc2ccnc(Nc3ccc(C4COC4)cc3)c2cc1OCC [Compound 27, 6,7-diethoxy-N-[4-(oxetan-3-yl)phenyl]isoquinolin-1-amine] | < 1000 nM
CCOc1cc2ccnc(Nc3ccc(-c4ccon4)cc3)c2cc1OCC [Compound 28, 6,7-diethoxy-N-[4-(1,2-oxazol-3-yl)phenyl]isoquinolin-1-amine] | < 1000 nM
CCOc1cc2ccnc(Nc3ccc(-c4ccno4)cc3)c2cc1OCC [Compound 29, 6,7-diethoxy-N-[4-(1,2-oxazol-5-yl)phenyl]isoquinolin-1-amine] | < 1000 nM
CCOc1cc2ccnc(Nc3ccc(S(C)(=O)=O)c(F)c3)c2cc1OCC [Compound 30, 6,7-diethoxy-N-(3-fluoro-4-methanesulfonylphenyl)isoquinolin-1-amine] | < 1000 nM
CCOc1cc2ccnc(Nc3ccc(S(C)(=O)=O)cc3F)c2cc1OCC [Compound 31, 6,7-diethoxy-N-(2-fluoro-4-methanesulfonylphenyl)isoquinolin-1-amine] | < 1000 nM
CS(=O)(=O)c1ccc(Nc2nccc3cc(OCCF)c(OCCF)cc23)cc1 [Compound 34, 6,7-bis(2-fluoroethoxy)-N-(4-methanesulfonylphenyl)isoquinolin-1-amine] | < 1000 nM

Each compound was assayed on primary astrocytes (assay: MTT mitochondrial activity assay in primary astrocytes). Details: different concentrations, after 1.5 h or 24 h.
Type: cell-based, mouse
Procedure: as §1
To monitor mitochondrial activity in astrocytes, which is linked to the metabolic process of glycolysis and production of lactate, astrocytes in 96-well plates were stimulated for 24 h (37° C. 5% CO2/95% air) with the compounds of the invention ranging from 10 nM to 10 μM.
After stimulation, 5 mg/ml thiazol blue tetrazolium bromide (MTT) in D5030 medium complemented with 5 mM D-glucose and 44 mM sodium bicarbonate (pH 7.2) was added to each well, and cells were incubated for 4 h at 37° C. (5% CO2). The medium was then removed and the amount of reduced MTT, i.e formazan, solubilized in DMSO (50 μl/well) was determined using a spectrophotometer (absorbance of 570 nm).
The mitochondrial activity was monitored in MTT colorimetric assay in primary astrocytes treated with Compounds (1), (2), (3), (4) (5), (9) and (10) at different concentrations after 1.5 h (FIG. 2 A, B, D, E, F, C, H, respectively) or 24 h (FIG. 2 H, I, K, L, M, J, N, respectively).

SMILES | mitochondrial activity (MTT colorimetric assay)
CS(=O)(=O)c1ccc(Nc2nccc3cc(O)c(O)cc23)cc1 [Compound 5, 1-(4-methylsulfonylanilino)isoquinoline-6,7-diol] | none of the selected compounds had direct effect on mitochondrial activity
COc1cc2ccnc(Nc3ccc(N4CCCC4=O)cc3)c2cc1OC [Compound 9, 1-[4-[(6,7-dimethoxy-1-isoquinolyl)amino]phenyl]pyrrolidin-2-one] | none of the selected compounds had direct effect on mitochondrial activity
C=COc1ccc2c(Nc3ccc(S(C)(=O)=O)cc3)nccc2c1 [Compound 10, N-(4-methylsulfonylphenyl)-6-vinyloxy-isoquinolin-1-amine] | none of the selected compounds had direct effect on mitochondrial activity

Reference: patent US20260125357A1, “LACTATE ENHANCING COMPOUNDS AND USES THEREOF” (GLIAPHARM SA, priority 2022, published 2026)
